Laboratory results reported in paper PMC11811690 (Angewandte Chemie (International Ed. in English), 2024).
≈ marks a conversion by molar mass, not a printed value. Where “and” joins values, the source holds several entries; their conditions need not be identical. Equal entries are not always repeated.

Key:
[1] = tested on: M. tuberculosis H37Rv poly-g-GFP; assay: microbe, parasite or virus in culture; type: cell-based; conditions: Mycobacterium tuberculosis, H37RV, 240 h, read-out: IC90 Mtb H37Rv-poly-g-GFP, fluorescence read-out
[2] = tested on: M. tuberculosis H37Rv poly-g-GFP; assay: microbe, parasite or virus in culture; type: cell-based; conditions: Mycobacterium tuberculosis, 336 h, read-out: MIC Mtb H37Rv-poly-g-GFP, turbidity read-out
C. difficile 630 = assay: microbe, parasite or virus in culture; type: cell-based, Clostridioides difficile; conditions: Clostridioides difficile; C. difficile 630, anaerobic, overnight, growth suppressed to OD600 < 0.15; read-out: MIC C. difficile
[3] = tested on: C. crescentus pfhuA_ΔacrAB-nodT; type: cell-based; conditions: disk diffusion, 20 µg per disk, 24 h, 30 °C; permeable and efflux-deficient strain
mutant RNAP^R89A = tested on: mutant RNAP^R89A; parameters: method as in PMID 29606590; conditions: transcription assay, mutant versus wild-type RNAP; cited from earlier work
C. crescentus pfhuA = assay: Inhibition zone (Kirby-Bauer disk diffusion), C. crescentus pfhuA; conditions: 20 µg per disk, 24 h, 30 °C, permeable strain
M. tuberculosis RNAP = biological target: T1, M. tuberculosis RNAP (Mycobacterium tuberculosis, UniProt P9WGY7+P9WGY9); assay: biochemical; conditions: fluorescent run-off transcription assay, triplicate, mean ± s.d.; read-out: IC50 Mtb RNAP, fluorescence read-out
T1 construct: made in house; host or cells: E. coli BL21(DE3) is stated for σA only

| SMILES | IC90 [1] | MIC [2] | MIC (C. difficile 630) | Inhibition zone C. crescentus pfuhAh_∆acrABnodT [3] | increase of IC50 against the mutant RNAP^R89A (mutant RNAP^R89A) | Inhibition zone C. crescentus pfuhAh (C. crescentus pfhuA) | IC50 (M. tuberculosis RNAP) |
| --- | --- | --- | --- | --- | --- | --- | --- |
| CCc1c(Cl)c(O)c(Cl)c(O)c1C(=O)O[C@H]1[C@H](O)[C@H](OC)[C@H](OC/C2=C\C=C\C[C@H](O)/C(C)=C/[C@H](CC)[C@@H](O[C@@H]3OC(C)(C)[C@@H](OC(=O)C(C)C)[C@H](O)[C@@H]3O)/C(C)=C/C(C)=C/C[C@@H]([C@@H](C)O)OC2=O)O[C@@H]1C [Fdx, fidaxomicin, reference compound] | 0.5 µg/mL (≈ 0.473 µM) | 0.5 µg/mL (≈ 0.473 µM) | < 0.0078 µg/mL | 311 ± 4 mm2 and 311±4.0 mm2 | > 400 fold | 126 ± 20 mm2 |  |
| CC[C@H]1/C=C(\C)[C@@H](O)C/C=C/C=C(\CNCc2nnc(-c3ccccc3)o2)C(=O)O[C@H]([C@@H](C)O)C/C=C(C)/C=C(\C)[C@@H]1O[C@@H]1OC(C)(C)[C@@H](OC(=O)C(C)C)[C@H](O)[C@@H]1O [compound 16] | 4 µg/mL (≈ 4.87 µM) | 4 µg/mL (≈ 4.87 µM) | 4 to 8 µg/mL (≈ 4.87 to 9.73 µM) | 322 ± 26 mm2 |  | 127 ± 13 mm2 | 420 ± 230 nM |
| CC[C@H]1/C=C(\C)[C@@H](O)C/C=C/C=C(\CNCc2nnc(-c3ccc(OC)c(OC)c3Cl)o2)C(=O)O[C@H]([C@@H](C)O)C/C=C(C)/C=C(\C)[C@@H]1O[C@@H]1OC(C)(C)[C@@H](OC(=O)C(C)C)[C@H](O)[C@@H]1O [compound 18] | 8 µg/mL (≈ 8.73 µM) | 4 µg/mL (≈ 4.36 µM) | 8 µg/mL (≈ 8.73 µM) | 200 ± 19 mm2 |  | 54 ± 8 mm2 |  |
